Tests used:
Format in all cases: cell-based
[1] = tested on: Staphylococcus aureus AUR58 7005; assay: MIC panel of challenge pathogens (CLSI); conditions: AUR587005, Staphylococcus aureus AUR58 7005; for MIC: read-out: 100% inhibition; for MIC50: read-out: MIC50 (50%); for MIC80: read-out: MIC80 (80%)
Outline: (§1)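 Broth microdilution per CLSI guidelines. Final inoculum 2-8×10^5 CFU/ml, compounds serially two-fold diluted from 128 mg/L top concentration. Incubated in the dark at 30-37° C for 24-48 h, aerobic or anaerobic as appropriate. MIC read visually as 100% inhibition endpoint; MIC50 and MIC80 also reported.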

[2] = tested on: Staphylococcus aureus AUR59 7005; assay: MIC panel of challenge pathogens (CLSI); conditions: AUR597005, Staphylococcus aureus AUR59 7005; for MIC: read-out: 100% inhibition; for MIC50: read-out: MIC50 (50%); for MIC80: read-out: MIC80 (80%)
Outline: as §1

[3] = tested on: Staphylococcus aureus AUR60 7005; assay: MIC panel of challenge pathogens (CLSI); conditions: AUR607005, Staphylococcus aureus AUR60 7005; for MIC: read-out: 100% inhibition; for MIC50: read-out: MIC50 (50%); for MIC80: read-out: MIC80 (80%)
Outline: as §1

[4] = tested on: Staphylococcus aureus EUP MRSA004; assay: MIC panel of challenge pathogens (CLSI); conditions: EUPMRSA004, Staphylococcus aureus EUP MRSA004; for MIC: read-out: 100% inhibition; for MIC50: read-out: MIC50 (50%); for MIC80: read-out: MIC80 (80%)
Outline: as §1

[5] = tested on: Staphylococcus aureus EUP SAU040; assay: MIC panel of challenge pathogens (CLSI); conditions: EUPSAU040, Staphylococcus aureus EUP SAU040; for MIC: read-out: 100% inhibition; for MIC50: read-out: MIC50 (50%); for MIC80: read-out: MIC80 (80%)
Outline: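 Broth microdilution per CLSI guidelines; final inoculum 2-8×10^5 CFU/ml in the appropriate broth. Compounds serially diluted two-fold from a top assay concentration of 128 mg/L. Plates incubated in the dark at 30-37° C for 24-48 hours, read visually; MIC taken as 100% inhibition endpoint.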

[6] = tested on: Staphylococcus aureus NRS1 (ATCC700699); assay: MIC panel of challenge pathogens (CLSI); conditions: Staphylococcus aureus NRS1 (ATCC700699); for MIC: read-out: 100% inhibition; for MIC50: read-out: MIC50 (50%); for MIC80: read-out: MIC80 (80%)
Outline: as §1

[7] = tested on: Staphylococcus aureus NRS2 (ATCC700698); assay: MIC panel of challenge pathogens (CLSI); conditions: Staphylococcus aureus NRS2 (ATCC700698); for MIC: read-out: 100% inhibition; for MIC50: read-out: MIC50 (50%); for MIC80: read-out: MIC80 (80%)
Outline: as §1

[8] = tested on: Staphylococcus aureus NRS383; assay: MIC panel of challenge pathogens (CLSI); conditions: Staphylococcus aureus NRS383; for MIC: read-out: 100% inhibition; for MIC50: read-out: MIC50 (50%); for MIC80: read-out: MIC80 (80%)
Outline: as §1

[9] = tested on: Staphylococcus aureus NRS384; assay: MIC panel of challenge pathogens (CLSI); conditions: Staphylococcus aureus NRS384; for MIC: read-out: 100% inhibition; for MIC50: read-out: MIC50 (50%); for MIC80: read-out: MIC80 (80%)
Outline: as §1

[10] = tested on: Staphylococcus epidermidis NRS122; assay: MIC panel of challenge pathogens (CLSI); conditions: Staphylococcus epidermidis NRS122; for MIC: read-out: 100% inhibition; for MIC50: read-out: MIC50 (50%); for MIC80: read-out: MIC80 (80%)
Outline: as §1

[11] = tested on: Staphylococcus epidermidis NRS7; assay: MIC panel of challenge pathogens (CLSI); conditions: Staphylococcus epidermidis NRS7; for MIC: read-out: 100% inhibition; for MIC50: read-out: MIC50 (50%); for MIC80: read-out: MIC80 (80%)
Outline: as §1

[12] = tested on: Staphylococcus aureus EUP MRSA002; assay: MIC panel of challenge pathogens (CLSI), EUP MRSA002; conditions: EUPMRSA002, Staphylococcus aureus EUP MRSA002; for MIC: read-out: 100% inhibition; for MIC50: read-out: MIC50 (50%); for MIC80: read-out: MIC80 (80%)
Method: The inocula for each bacterial strain were prepared by picking 5-10 distinct colonies from the culture plates and suspending them in the appropriate broth as per Clinical and Laboratory Standards Institute (CLSI) guidelines M07-A8, M24-A or M11-A7 as appropriate. The inoculum was resuspended by vigorous shaking on a vortex mixer for 15 s. The turbidity was then adjusted to McFarland standard 0.5 ([…]). The inoculum was further diluted in the appropriate media for MIC tests to give a final inoculum in each well of 2-8×10^5 CFU/ml. MICs were tested in the appropriate broth in accordance with the appropriate CLSI guidelines.
A stock solution of each compound was prepared at a concentration of 1.28 g/L in DMSO. The stock was further diluted in the appropriate media to give a top starting concentration of 128 mg/L in the assay. 100 μL of the appropriate media, as per CLSI guidelines, was dispensed into each well in columns 2-12. 200 μL of the each compound solution (at 256 mg/L) was dispensed into each well in column 1. 100 μL aliquots were pipetted from column 1 wells and dispensed into column 2 with a multichannel pipette (±2% coefficient of variation) thus diluting two-fold. 100 μL samples were then pipetted from column 2 wells and dispensed into column 3. The process was repeated through to column 10. The final 100 μL of diluted drug from column 10 was then discarded. Row 11 acted as a positive control (no compound, but organisms added), Row 12 acted as a negative control (no compound, and no organisms added).
100 μL of the appropriate inoculum suspension in the appropriate media, as per CLSI guidelines, was added to the appropriate wells. […] All plates were incubated in the dark under aerobic or anaerobic conditions at 30-37° C. for 24-48 hours, according to the appropriate CLSI guideline. Plates were read visually 24-48 hours post inoculation. Endpoints of 100% inhibition were determined (CLSI interpretation endpoints following visual examination).
MIC50, MIC80, and 100% inhibition results are reported below in μg/mL in the following Tables, indicating each compound tested against a given species and strain: […]

Cc1ccc(Cl)cc1-c1cc(-c2nnn[nH]2)sc1-c1cc(Cl)ccc1C [DNM0508, 5-(4,5-Bis(5-chloro-2-methylphenyl)thiophen-2-yl)-1H-tetrazole]
4 µg/mL: MIC50 [10]
0.5 µg/mL: MIC50 [6] | MIC50 [7] | MIC50 [11] | MIC80 [11]
8 µg/mL: MIC [10] | MIC80 [10]
1 µg/mL: MIC [1] | MIC50 [1] | MIC80 [1] | MIC [2] | MIC50 [2] | MIC80 [2] | MIC [3] | MIC50 [3] | MIC80 [3] | MIC [4] | MIC50 [4] | MIC80 [4] | MIC [5] | MIC50 [5] | MIC80 [5] | MIC [6] | MIC80 [6] | MIC [7] | MIC80 [7] | MIC [8] | MIC50 [8] | MIC80 [8] | MIC [9] | MIC50 [9] | MIC80 [9] | MIC [11] | MIC [12] | MIC50 [12] | MIC80 [12]

CCCCc1cccc(-c2cc(-c3nnn[nH]3)sc2Cc2ccc(Cl)cc2)c1 [DNM0606, 5-(4-(3-Butylphenyl)-5-(4-chlorobenzyl)thiophen-2-yl)-1H-tetrazole]
4 µg/mL: MIC [10] | MIC80 [10]
≤ 0.25 µg/mL: MIC [4] | MIC50 [4] | MIC80 [4] | MIC [5] | MIC50 [5] | MIC80 [5] | MIC [8] | MIC50 [8] | MIC80 [8] | MIC [9] | MIC50 [9] | MIC80 [9] | MIC [12] | MIC50 [12] | MIC80 [12]
0.5 µg/mL: MIC50 [1] | MIC [2] | MIC50 [2] | MIC80 [2] | MIC [3] | MIC50 [3] | MIC80 [3] | MIC [6] | MIC50 [6] | MIC80 [6] | MIC [7] | MIC50 [7] | MIC80 [7] | MIC50 [11] | MIC80 [11]
2 µg/mL: MIC50 [10]
1 µg/mL: MIC [1] | MIC80 [1] | MIC [11]

Clc1ccc(Cc2sc(-c3nnn[nH]3)cc2-c2cccc(CC3CCCC3)c2)cc1 [DNM0610, 5-(5-(4-Chlorobenzyl)-4-(3-(cyclopentylmethyl)phenyl)thiophen-2-yl)-1H-tetrazole]
≤ 0.25 µg/mL: MIC [4] | MIC50 [4] | MIC80 [4] | MIC [6] | MIC50 [6] | MIC80 [6] | MIC [9] | MIC50 [9] | MIC80 [9]
0.5 µg/mL: MIC [2] | MIC50 [2] | MIC80 [2] | MIC [3] | MIC50 [3] | MIC80 [3] | MIC [5] | MIC50 [5] | MIC80 [5] | MIC [7] | MIC50 [7] | MIC80 [7] | MIC [8] | MIC50 [8] | MIC80 [8] | MIC [12] | MIC50 [12] | MIC80 [12]
16 µg/mL: MIC [10]
1 µg/mL: MIC50 [1] | MIC50 [11] | MIC80 [11]
2 µg/mL: MIC [1] | MIC80 [1] | MIC [11]
8 µg/mL: MIC80 [10]
4 µg/mL: MIC50 [10]

From patent publication US9012655B2, “Antimicrobial/adjuvant compounds and methods” (Denouamed, Inc., priority 2011, dated 2015)
